From patent US11584744B2 (UNIVERSITY OF WASHINGTON, priority 2017, dated 2023) come the findings set out here.

Molecules are shown by their SMILES. In brackets after ≈: the same amount, converted by molar mass. Several values for one entry are separate records, joined by “and”; a condition that tells them apart may be missing. Identical values can stand only once. Like-named read-outs stand apart in the source and are kept apart here. A value given as a limit tells only on which side of the number the result lay.

The subject of assay [1] is S. aureus MRSA (ATCC 33591). Put plainly: MIC susceptibility testing. The class given is cell-based, Staphylococcus aureus. The conditions noted are these: MRSA ATCC33591; for MIC: Staphylococcus aureus, read-out: (G) MRSA (ATCC33591) MIC. The procedure, abridged:
(§1)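 CLSI broth microdilution with two-fold compound dilutions, in triplicate; cells added in medium at 1×10^6 CFUs/mL, DMSO ≤0.5%. Media: MHB for S. aureus, CA-MHB for E. coli and E. faecium, CA-MHB plus 3% laked horse blood for S. pyogenes (5% CO2).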

Assay [2] relates to S. aureus MSSA (ATCC 29213). Put plainly: MIC susceptibility testing. It is filed as cell-based, Staphylococcus aureus. The conditions noted are these: S. aureus ATCC 29213; for MIC: Staphylococcus aureus, read-out: (F) S. aureus (ATCC 29213) MIC.
The target in assay [3] is T1, MetRS (T. brucei) (Trypanosoma brucei brucei, UniProt Q38C91).
T1 sequence (Q38C91 1-773): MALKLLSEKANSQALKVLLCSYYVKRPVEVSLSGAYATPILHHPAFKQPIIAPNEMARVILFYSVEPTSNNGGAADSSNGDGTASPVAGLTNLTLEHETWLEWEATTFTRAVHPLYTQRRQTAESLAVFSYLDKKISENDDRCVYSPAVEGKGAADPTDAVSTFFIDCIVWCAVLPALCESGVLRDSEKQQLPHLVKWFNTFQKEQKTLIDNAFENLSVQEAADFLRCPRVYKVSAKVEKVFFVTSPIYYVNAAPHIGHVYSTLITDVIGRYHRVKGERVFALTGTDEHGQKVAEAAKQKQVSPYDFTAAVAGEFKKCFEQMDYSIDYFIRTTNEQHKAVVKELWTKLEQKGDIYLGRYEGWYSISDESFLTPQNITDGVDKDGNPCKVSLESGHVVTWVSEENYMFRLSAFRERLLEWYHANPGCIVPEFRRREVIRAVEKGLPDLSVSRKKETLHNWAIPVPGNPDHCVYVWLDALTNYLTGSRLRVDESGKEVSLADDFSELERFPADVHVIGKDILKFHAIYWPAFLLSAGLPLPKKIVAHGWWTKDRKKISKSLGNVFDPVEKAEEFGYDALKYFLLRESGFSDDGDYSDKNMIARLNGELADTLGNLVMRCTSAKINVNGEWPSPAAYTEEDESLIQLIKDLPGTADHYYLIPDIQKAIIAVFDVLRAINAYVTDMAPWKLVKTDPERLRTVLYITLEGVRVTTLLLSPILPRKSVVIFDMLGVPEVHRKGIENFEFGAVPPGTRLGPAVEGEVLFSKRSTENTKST
Put plainly: MetRS (T. brucei) enzyme inhibition. The class given is biochemical.

The target of assay [4] is MetRS (C. parvum) (Cryptosporidium parvum, UniProt Q5CVN0). Put plainly: MetRS (C. parvum) enzyme inhibition. The class given is biochemical. The conditions noted are these: read-out: (C) MetRS (C. parvum) IC50.
The subject of assay [5] is T. cruzi. The experiment in a line: T. cruzi growth inhibition. The conditions noted are these: read-out: (E) T. cruzi EC50. The class given is cell-based, Trypanosoma cruzi.
The subject of assay [6] is C. parvum. The experiment in a line: C. parvum growth inhibition. The conditions noted are these: read-out: (J) C. parvum EC50. The class given is cell-based, Cryptosporidium parvum.
For assay [7], the system named is G. lamblia (ATCC GL50803). Put plainly: G. lamblia growth inhibition. The class given is cell-based. The conditions noted are these: Giardia duodenalis, read-out: (K) G. lamblia (ATCC GL50803) EC50.
In assay [8] the target is recombinant S. aureus MetRS enzyme (Staphylococcus aureus, UniProt A0A0H2XID2). The experiment in a line: Inhibition of SaMetRS, ATP depletion assay. The class given is biochemical. The conditions noted are these: read-out: (B) MetRS (S. aureus) IC50. The procedure, abridged:
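IC50 values come from sigmoidal fits of percent inhibition, based on ATP left after 120 min as measured by Kinase-Glo. Substrates were 20 μM L-methionine and 150 nM ATP, added after compounds sat 15 min at room temperature with 25 nM His-tagged SaMetRS, bulk E. coli tRNA, pH 7.9 HEPES buffer and 2% DMSO.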

Assay [9] deals with S. pyogenes (ATCC 19615). Put plainly: MIC susceptibility testing. The class given is cell-based. The conditions noted are these: Streptococcus pyogenes, ATCC19615, S. pyogenes ATCC 19615; read-out: (H) S. pyogenes (ATCC 19615) MIC. An excerpt: Media and culture conditions. Mueller Hinton broth (MHB), cation adjusted Mueller Hinton broth (CA-MHB), and Brain Heart Infusion broth (BHI) were purchased from Becton Dickinson (Franklin Lakes, N.J.). Tryptic soy agar (TSA) plates, TSA with 5% sheep blood plates, and CA-MHB with 3% laked horse blood were purchased from Remel (San Diego, Calif.). MHB was used to assay all Staphylococcus aureus strains. CA-MHB was used for Staphylococcus epidermidis, Enterococcus faecalis, Enterococcus faecium, Escherichia coli, and Pseudomonas aeruginosa. CA-MHB supplemented with 3% laked horse blood was used for Streptococcus pneumoniae and Streptococcus pyogenes. Staphylococcus, Enterococcus, Escherichia, and Pseudomonas strains were cultured at 37° C. with ambient air. Streptococcus strains were cultured in 37° C. with 5% CO2. Separate conditions for radiolabeled precursor uptake assays are described below.
Susceptibility testing: Minimum inhibitory concentration (MIC) determinations were performed in triplicate in 96-well round bottom microtiter plates (Corning, Corning N.Y.) as described by the Clinical and Laboratory Standards Institute (CLSI). Serial two-fold dilutions of compounds were added to plates in 50 μL volumes. An additional 50 μL of media containing bacterial cells (1×10^6 CFUs/mL) was then added to each well. Maximum DMSO concentrations were 0.5%. Plates were incubated at 37° C. for at least 18 h before reading the susceptibility result by optical absorbance (OD600) using a BioTek ELx800. The lowest concentration causing ≥90% growth inhibition compared to the untreated control was recorded as the MIC (and also corresponded to the visual MIC). MICs were measured at least twice and the higher value (if different) was recorded herein.

In assay [10] the test system is E. faecium VRE (ATCC 51559). Put plainly: MIC susceptibility testing. The conditions noted are these: E. faecium ATCC 51559; for MIC: Enterococcus faecium, read-out: (I) E. faecium (ATCC 51559) MIC. It is filed as cell-based, Enterococcus faecium. The method, boiled down:
as §1

Assay [11] has as its system T. brucei. Put plainly: T. brucei growth inhibition. The conditions noted are these: read-out: (D) T. brucei EC50. The class given is cell-based, Trypanosoma brucei.

Sequence of MetRS (C. parvum) (Q5CVN0 entry or part of it): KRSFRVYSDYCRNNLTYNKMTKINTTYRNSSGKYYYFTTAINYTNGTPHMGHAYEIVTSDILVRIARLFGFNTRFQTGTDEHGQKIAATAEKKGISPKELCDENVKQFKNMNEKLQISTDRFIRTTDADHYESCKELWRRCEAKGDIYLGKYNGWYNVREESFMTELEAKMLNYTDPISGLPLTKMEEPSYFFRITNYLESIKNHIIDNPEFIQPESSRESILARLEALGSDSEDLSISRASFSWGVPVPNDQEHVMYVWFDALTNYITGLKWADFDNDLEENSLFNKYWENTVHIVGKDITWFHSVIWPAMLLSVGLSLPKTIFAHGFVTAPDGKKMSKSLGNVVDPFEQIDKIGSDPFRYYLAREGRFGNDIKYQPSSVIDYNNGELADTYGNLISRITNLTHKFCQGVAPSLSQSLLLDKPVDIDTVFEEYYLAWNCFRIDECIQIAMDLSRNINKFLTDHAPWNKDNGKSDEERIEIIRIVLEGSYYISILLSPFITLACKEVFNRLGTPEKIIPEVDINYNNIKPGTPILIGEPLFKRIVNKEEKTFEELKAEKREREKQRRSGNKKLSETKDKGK
Sequence of recombinant S. aureus MetRS enzyme (A0A0H2XID2 2-657): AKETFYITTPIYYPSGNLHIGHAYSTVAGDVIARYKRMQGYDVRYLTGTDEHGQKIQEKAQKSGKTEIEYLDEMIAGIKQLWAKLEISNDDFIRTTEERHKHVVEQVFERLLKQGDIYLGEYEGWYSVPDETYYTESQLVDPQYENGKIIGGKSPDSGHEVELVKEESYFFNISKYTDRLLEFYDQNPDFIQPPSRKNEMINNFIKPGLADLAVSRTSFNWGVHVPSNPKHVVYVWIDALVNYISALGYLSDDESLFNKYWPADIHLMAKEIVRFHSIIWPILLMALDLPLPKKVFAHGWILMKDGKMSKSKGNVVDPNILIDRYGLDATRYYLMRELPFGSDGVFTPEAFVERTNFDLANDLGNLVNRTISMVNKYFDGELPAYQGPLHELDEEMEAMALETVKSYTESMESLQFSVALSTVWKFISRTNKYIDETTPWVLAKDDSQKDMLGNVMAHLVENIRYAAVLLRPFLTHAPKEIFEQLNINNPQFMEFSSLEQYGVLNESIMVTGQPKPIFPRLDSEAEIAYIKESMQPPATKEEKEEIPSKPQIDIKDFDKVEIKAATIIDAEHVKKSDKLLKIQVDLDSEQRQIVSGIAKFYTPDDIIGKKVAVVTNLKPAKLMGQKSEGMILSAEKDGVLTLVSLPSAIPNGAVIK

The term MIC denotes the lowest concentration found to suppress growth. A word on the IC50: it is the concentration needed to halve the response being measured. By EC50 is commonly meant the concentration giving half of the maximal effect. For `CC(C)n1c(Cc2ccc(Cl)cc2Cl)cn(Cc2nc3ccc(F)nc3[nH]2)c1=O` [Compound 2080, 4-[(2,4-dichlorophenyl)methyl]-1-({5-fluoro-1H-imidazo[4,5-b]pyridin-2-yl}methyl)-3-(propan-2-yl)-2,3-dihydro-1H-imidazol-2-one], the results for the MIC in assay [1] and in [2] were 1.4 mg/L (≈ 3.22 µM) and 0.999 mg/L (≈ 2.3 µM), respectively. In addition, the IC50 in [3] and in [4] was < 0.04 µM each time. Moreover, the EC50 in assay [5] (Trypanosoma cruzi) is 0.22 µM; in assay [6] (Cryptosporidium parvum), 0.61 µM; in assay [6], 0.434 µM; in [7], 3.85 µM.
On to `C[S+]([O-])c1nc(Cc2ccc(Cl)cc2Cl)cn1Cc1nc2nc(Cl)ccc2[nH]1` (centres unmarked) [Compound 2110, 1-({5-chloro-1H-imidazo[4,5-b]pyridin-2-yl}methyl)-4-[(2,4-dichlorophenyl)methyl]-2-methanesulfinyl-1H-imidazole], for which the IC50 was < 0.025 µM in assay [8], < 0.04 µM in [3] and 0.0986 µM in assay [4]. In addition, the MIC in assay [1] is 2.36 mg/L (≈ 5.19 µM); in assay [2], 0.795 mg/L (≈ 1.75 µM); in assay [9], > 4 mg/L; in [10] it was 1.99 mg/L (≈ 4.38 µM). Further, the EC50 in assay [11] (Trypanosoma brucei) worked out at 0.0194 µM; in assay [5] (Trypanosoma cruzi), 0.178 µM; in assay [6] (Cryptosporidium parvum) it was 1.27 µM.
As for `C[S+]([O-])c1nc(Cc2ccc(Cl)cc2Cl)cn1Cc1nc2ccc(F)nc2[nH]1` (centres unmarked) [Compound 2120, 4-[(2,4-dichlorophenyl)methyl]-1-({5-fluoro-1H-imidazo[4,5-b]pyridin-2-yl}methyl)-2-methanesulfinyl-1H-imidazole], the IC50 in assay [8] was < 0.025 µM; in assay [3], < 0.04 µM; in assay [4], < 0.04 µM. Moreover, the MIC in assay [2] was 1.26 mg/L (≈ 2.87 µM); in assay [9], > 4 mg/L; in assay [10] it was 0.336 mg/L (≈ 0.767 µM). Besides, the EC50 amounted to 0.0136 µM in assay [11] (Trypanosoma brucei), 0.295 µM in [5] (Trypanosoma cruzi) and 1.23 µM in assay [6] (Cryptosporidium parvum).
As to `COc1ccc(-c2ccc(NC(C)=O)c3nc(Cc4nc5nc(Cl)ccc5[nH]4)cn23)c(Cl)c1` [Compound 2169, N-[2-({5-chloro-1H-imidazo[4,5-b]pyridin-2-yl}methyl)-5-(2-chloro-4-methoxyphenyl)imidazo[1,2-a]pyridin-8-yl]acetamide], the MIC in assay [2] stood at 0.259 mg/L (≈ 0.538 µM). Further, the IC50 in [3] and in assay [4] was < 0.04 µM in each case. Further, the EC50 was found to be 0.144 µM in [6] (Cryptosporidium parvum), 0.195 µM in [6] and 0.01 µM in assay [7].
For the compound `COc1ccc(Cc2cn(Cc3nc4nc(Cl)ccc4[nH]3)c(=O)n2CC(C)(C)O)c(Cl)c1` [Compound 2207, 1-({5-chloro-1H-imidazo[4,5-b]pyridin-2-yl}methyl)-4-[(2-chloro-4-methoxyphenyl)methyl]-3-(2-hydroxy-2-methylpropyl)-2,3-dihydro-1H-imidazol-2-one], the MIC in assay [1] was determined as 0.334 mg/L (≈ 0.701 µM); in assay [2] it was 0.218 mg/L (≈ 0.458 µM). Further, the “(F) S. aureus (ATCC 29213) MIC” value in assay [2] was 0.424 µg/mL. Moreover, the IC50 in assay [3] and in assay [4] was < 0.04 µM each time. Besides, the figures for the EC50 in assay [6] (Cryptosporidium parvum) and in assay [7] were 0.129 µM and 0.03 µM, respectively.
Regarding `COc1cc(Cl)c(-c2cccc3c2CN(Cc2nc4nc(Cl)ccc4[nH]2)C3=O)cc1OC` [Compound 2231, 2-((5-chloro-1H-imidazo[4,5-b]pyridin-2-yl)methyl)-4-(2-chloro-4,5-dimethoxyphenyl)isoindolin-1-one], the MIC in assay [1] is < 0.00781 mg/L. In assay [4], the IC50 was < 0.04 µM. Moreover, the EC50 in assay [11] (Trypanosoma brucei) was < 0.00091 µM; in assay [11], 0.00066 µM; in assay [7] it was 0.01 µM.
Consider `COc1ccc(-c2cccc3c2CN(Cc2nc4c(C#N)c(Cl)ccc4[nH]2)C3=O)c(Cl)c1` [Compound 2233, 5-chlor0-2-((4-(2-chloro-4-methoxyphenyl)-1-oxoisoindolin-2-yl)methyl)-1H-benzo[d]imidazole-4-carbonitrile], for which the MIC in assay [1] amounted to 0.186 mg/L (≈ 0.401 µM); in assay [10], 0.147 mg/L (≈ 0.317 µM). For the same compound, the 50% inhibitory concentration (IC50) in assay [4] was < 0.04 µM. For the same compound, the EC50 worked out at 0.0233 µM in assay [11] (Trypanosoma brucei), 0.0278 µM in [11], 0.207 µM in assay [5] (Trypanosoma cruzi) and 0.02 µM in assay [7].
For `COc1cc(Cl)c(Cc2cn(Cc3nc4ccc(Cl)nc4[nH]3)c([S+](C)[O-])n2)cc1OC` (centres unmarked) [Compound 2241, 1-({5-chloro-1H-imidazo[4,5-b]pyridin-2-yl}methyl)-4-[(2-chloro-4,5-dimethoxyphenyl)methyl]-2-methanesulfinyl-1H-imidazole], in assay [1], the “(G) MRSA (ATCC33591) MIC” value is 0.113 mg/L. Further, the results for the MIC in assay [1], in assay [9] and in assay [10] were 0.104 mg/L (≈ 0.216 µM), 0.847 mg/L (≈ 1.76 µM) and 0.0277 mg/L (≈ 0.0577 µM), respectively. The “(I) E. faecium (ATCC 51559) MIC” value in assay [10] is 0.0206, μg/ml and 0.0160, μg/ml and 0.0189 μg/ml. Moreover, the IC50 in [4] is < 0.04 µM. The EC50 is 0.00212 µM in assay [11] (Trypanosoma brucei); 0.00152 µM and 0.0018 µM and 0.00171 µM in assay [11]; 1.6 µM in assay [6] (Cryptosporidium parvum); > 2 µM in assay [6].
With `COc1ccc(-c2nccn3c(=O)n(Cc4nc5nc(Cl)ccc5[nH]4)cc23)c(Cl)c1` [Compound 2249, 2-({5-chloro-1H-imidazo[4,5-b]pyridin-2-yl}methyl)-8-(2-chloro-4-methoxyphenyl)-2H,3H-imidazo[1,5-a]pyrazin-3-one], the “(F) S. aureus (ATCC 29213) MIC” value in assay [2] was 3.33, μg/ml and 3.16 μg/ml. In addition, the MIC in [2] was > 2 mg/L. For the same compound, in assay [4], the IC50 came to 0.122 µM. In addition, the EC50 in assay [11] (Trypanosoma brucei) is 0.0309 µM; in [11], 0.0316 µM; in [5] (Trypanosoma cruzi), 0.0764 µM; in assay [5], 0.114 µM; in [6] (Cryptosporidium parvum), 1.07 µM; in assay [6], 1.2 µM and 1.14 µM and > 2 µM. Further, in assay [7], the EC50 came out at 1.2 µM.
Regarding `CCNC(=O)n1c(Cc2ccc(Cl)cc2Cl)cn(Cc2nc3nc(Cl)ccc3[nH]2)c1=O` [Compound 2288, 3-({5-chloro-1H-imidazo[4,5-b]pyridin-2-yl}methyl)-5-[(2,4-dichlorophenyl)methyl]—N-ethyl-2-oxo-2,3-dihydro-1H-imidazole-1-carboxamide], the values for the MIC in assay [1], in [2] and in assay [9] were > 2 mg/L, 1.16 mg/L (≈ 2.42 µM) and > 2 mg/L, respectively. Besides, the EC50 in assay [11] (Trypanosoma brucei) stood at 0.00179 µM; in assay [5] (Trypanosoma cruzi), 0.183 µM.
